The results in this text go back to patent US20260226068A1, “IMIDAZOTRIAZINE IL-17A MODULATORS AND USES THEREOF” (DICE ALPHA, INC., priority 2023, published 2026).

The target of assay [1] is T1, IL-17A/A (Homo sapiens, UniProt Q16552).
T1 construct: purchased Genscript Z03228
T1 sequence (Q16552 24-155): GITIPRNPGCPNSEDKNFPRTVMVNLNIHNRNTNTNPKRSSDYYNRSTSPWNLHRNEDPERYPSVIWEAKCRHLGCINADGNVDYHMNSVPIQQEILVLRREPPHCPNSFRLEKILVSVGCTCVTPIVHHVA
Nature of the assay: IL-17A/A HEK-Blue cell assay (SEAP reporter). The assay is classed as cell-based. As to conditions: HEK-Blue IL-17A reporter cells, IL17A/A 5 ng/mL, 20 hours, SEAP read at A630; read-out: HEK-Blue IL17AA (IC50 for IL-17A/A inhibition).

Assay [2] deals with T2, IL-17A/F (Homo sapiens, UniProt Q16552+Q96PD4).
T2 construct: purchased R&D Systems
T2 sequence (Q16552 24-155): T1 sequence (Q16552 24-155)
T2 sequence (Q96PD4 31-163): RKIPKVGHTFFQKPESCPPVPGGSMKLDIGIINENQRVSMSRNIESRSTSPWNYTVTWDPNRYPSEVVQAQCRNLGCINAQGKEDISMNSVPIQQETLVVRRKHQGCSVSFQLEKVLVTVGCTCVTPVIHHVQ
As to the kind of experiment: IL-17A/F HEK-Blue cell assay (SEAP reporter). The assay is classed as cell-based. As to conditions: HEK-Blue IL-17A reporter cells, IL17A/F 5 ng/mL, 20 hours, SEAP read at A630; read-out: HEK-Blue IL17AF (IC50 for IL-17A/F inhibition).

Structures are written as SMILES. Some results are limits rather than exact numbers.

With `O=C(N[C@H](c1cn2nc(C[C@H]3C[C@@H](C(F)(F)F)CNC3=O)c(N3CCOCC3)nc2n1)C1CCC(F)(F)CC1)OCc1cc(C(F)(F)F)on1` [Compound 181, (5-(trifluoromethyl)isoxazol-3-yl)methyl ((S)-(4,4-difluorocyclohexyl)(3-morpholino-2-(((3R,5R)-2-oxo-5-(trifluoromethyl)piperidin-3-yl)methyl)imidazo[1,2-b][1,2,4]triazin-6-yl)methyl)carbamate], the IC50 is less than 100 nM in assay [1] and greater than 1000 nM in assay [2].
The corresponding values for `CCn1nccc1C(=O)N[C@H](c1cn2nc(C[C@H]3C[C@@H](C(F)(F)F)CNC3=O)c(C3CCC(F)(F)CC3)nc2n1)C1CCC(F)(F)CC1` [Compound 182, N-((1S)-(4,4-difluorocyclohexyl)(3-(4,4-difluorocyclohexyl)-2-(((3R,5R)-2-oxo-5-(trifluoromethyl)piperidin-3-yl)methyl)imidazo[1,2-b][1,2,4]triazin-6-yl)methyl)-1-ethyl-1H-pyrazole-5-carboxamide] are less than 100 nM and less than 100 nM.
Take `O=C(N[C@H](c1cn2nc(C[C@H]3C[C@@H](C(F)(F)F)CNC3=O)c(C3CCOCC3)nc2n1)C1CCC(F)(F)CC1)OCc1cc(C(F)(F)F)on1` [Compound 183, (5-(trifluoromethyl)isoxazol-3-yl)methyl ((1S)-(4,4-difluorocyclohexyl)(2-(((3R,5R)-2-oxo-5-(trifluoromethyl)piperidin-3-yl)methyl)-3-(tetrahydro-2H-pyran-4-yl)imidazo[1,2-b][1,2,4]triazin-6-yl)methyl)carbamate]: the IC50 in assay [1] is less than 100 nM; in assay [2] it was 100 to 1000 nM.
The corresponding values for `O=C(N[C@H](c1cn2nc(C[C@H]3C[C@@H](C(F)(F)F)CNC3=O)c(C3CCOCC3)nc2n1)C1CCC(F)(F)CC1)c1ccnn1C(F)(F)F` [Compound 184, N-((1S)-(4,4-difluorocyclohexyl)(2-(((3R,5R)-2-oxo-5-(trifluoromethyl)piperidin-3-yl)methyl)-3-(tetrahydro-2H-pyran-4-yl)imidazo[1,2-b][1,2,4]triazin-6-yl)methyl)-1-(trifluoromethyl)-1H-pyrazole-5-carboxamide] are less than 100 nM and greater than 1000 nM.
The like results for `O=C(N[C@H](c1cn2nc(C[C@H]3C[C@@H](C(F)(F)F)CNC3=O)c(C3CCOCC3)nc2n1)C1CCC(F)(F)CC1)c1ccnn1C(F)F` [Compound 185, N-((1S)-(4,4-difluorocyclohexyl)(2-(((3R,5R)-2-oxo-5-(trifluoromethyl)piperidin-3-yl)methyl)-3-(tetrahydro-2H-pyran-4-yl)imidazo[1,2-b][1,2,4]triazin-6-yl)methyl)-1-(difluoromethyl)-1H-pyrazole-5-carboxamide] were, in that order, less than 100 nM and 100 to 1000 nM.
The like results for `O=C(N[C@H](c1cn2nc(C[C@H]3C[C@@H](C(F)(F)F)CNC3=O)c(C3CCOCC3)nc2n1)C1CCC(F)(F)CC1)c1ccnn1CC(F)(F)F` [Compound 186, N-((1S)-(4,4-difluorocyclohexyl)(2-(((3R,5R)-2-oxo-5-(trifluoromethyl)piperidin-3-yl)methyl)-3-(tetrahydro-2H-pyran-4-yl)imidazo[1,2-b][1,2,4]triazin-6-yl)methyl)-1-(2,2,2-trifluoroethyl)-1H-pyrazole-5-carboxamide] were, in that order, less than 100 nM and 100 to 1000 nM.
For the compound `O=C(N[C@H](c1cn2nc(C[C@H]3C[C@@H](C(F)(F)F)CNC3=O)c(C3CCOCC3)nc2n1)C1CCC(F)(F)CC1)c1ccnn1CC(F)F` [Compound 187, N-((1S)-(4,4-difluorocyclohexyl)(2-(((3R,5R)-2-oxo-5-(trifluoromethyl)piperidin-3-yl)methyl)-3-(tetrahydro-2H-pyran-4-yl)imidazo[1,2-b][1,2,4]triazin-6-yl)methyl)-1-(2,2-difluoroethyl)-1H-pyrazole-5-carboxamide], the IC50 in assay [1] was less than 100 nM; in assay [2], 100 to 1000 nM.
The like results for `O=C(N[C@H](c1cn2nc(C[C@H]3C[C@@H](C(F)(F)F)CNC3=O)c(C3CCOCC3)nc2n1)C1CCC(F)(F)CC1)c1ccnn1CCF` [Compound 188, N-((1S)-(4,4-difluorocyclohexyl)(2-(((3R,5R)-2-oxo-5-(trifluoromethyl)piperidin-3-yl)methyl)-3-(tetrahydro-2H-pyran-4-yl)imidazo[1,2-b][1,2,4]triazin-6-yl)methyl)-1-(2-fluoroethyl)-1H-pyrazole-5-carboxamide] were, in that order, less than 100 nM and 100 to 1000 nM.
On to `Cc1nocc1C(=O)N[C@H](c1cn2nc(C[C@H]3C[C@@H](C(F)(F)F)CNC3=O)c(C3CCOCC3)nc2n1)C1CCC(F)(F)CC1` [Compound 189, N-((1S)-(4,4-difluorocyclohexyl)(2-(((3R,5R)-2-oxo-5-(trifluoromethyl)piperidin-3-yl)methyl)-3-(tetrahydro-2H-pyran-4-yl)imidazo[1,2-b][1,2,4]triazin-6-yl)methyl)-3-methylisoxazole-4-carboxamide], for which the figures for the IC50 in assay [1] and in assay [2] were less than 100 nM and 100 to 1000 nM, respectively.
Consider `O=C(N[C@H](c1cn2nc(C[C@H]3C[C@@H](C(F)(F)F)CNC3=O)c(C3CCOCC3)nc2n1)C1CCC(F)(F)CC1)c1nonc1C(F)F` [Compound 190, N-((1S)-(4,4-difluorocyclohexyl)(2-(((3R,5R)-2-oxo-5-(trifluoromethyl)piperidin-3-yl)methyl)-3-(tetrahydro-2H-pyran-4-yl)imidazo[1,2-b][1,2,4]triazin-6-yl)methyl)-4-(difluoromethyl)-1,2,5-oxadiazole-3-carboxamide], for which the IC50 in assay [1] was less than 100 nM; in assay [2], greater than 1000 nM.
The like results for `O=C(N[C@H](c1cn2nc(C[C@H]3C[C@@H](C(F)(F)F)CNC3=O)c(C3CCOCC3)nc2n1)C1CCC(F)(F)CC1)c1conc1C(F)(F)F` [Compound 191, N-((1S)-(4,4-difluorocyclohexyl)(2-(((3R,5R)-2-oxo-5-(trifluoromethyl)piperidin-3-yl)methyl)-3-(tetrahydro-2H-pyran-4-yl)imidazo[1,2-b][1,2,4]triazin-6-yl)methyl)-3-(trifluoromethyl)isoxazole-4-carboxamide] were, in that order, less than 100 nM and 100 to 1000 nM.
Consider `CCn1nccc1C(=O)N[C@H](c1cn2nc(C[C@H]3C[C@@H](C(F)(F)F)CNC3=O)c(N3CCC(F)(F)CC3)nc2n1)C1CCC(F)(F)CC1` [Compound 192, N—((S)-(4,4-difluorocyclohexyl)(3-(4,4-difluoropiperidin-1-yl)-2-(((3R,5R)-2-oxo-5-(trifluoromethyl)piperidin-3-yl)methyl)imidazo[1,2-b][1,2,4]triazin-6-yl)methyl)-1-ethyl-1H-pyrazole-5-carboxamide], for which the IC50 was less than 100 nM in assay [1] and 100 to 1000 nM in assay [2].
As for `CCn1nccc1C(=O)N[C@H](c1cn2nc(C[C@H]3C[C@@H](C(F)(F)F)CNC3=O)c(N3CC4(CCOC4)C3)nc2n1)C1CCC(F)(F)CC1` [Compound 193, N—((S)-(4,4-difluorocyclohexyl)(2-(((3R,5R)-2-oxo-5-(trifluoromethyl)piperidin-3-yl)methyl)-3-(6-oxa-2-azaspiro[3.4]octan-2-yl)imidazo[1,2-b][1,2,4]triazin-6-yl)methyl)-1-ethyl-1H-pyrazole-5-carboxamide], the IC50 in assay [1] is less than 100 nM; in assay [2], 100 to 1000 nM.
The corresponding values for `CCn1nccc1C(=O)N[C@H](c1cn2nc(C[C@H]3C[C@@H](C(F)(F)F)CNC3=O)c(N3CCC(C)(O)CC3)nc2n1)C1CCC(F)(F)CC1` [Compound 194, N—((S)-(4,4-difluorocyclohexyl)(3-(4-hydroxy-4-methylpiperidin-1-yl)-2-(((3R,5R)-2-oxo-5-(trifluoromethyl)piperidin-3-yl)methyl)imidazo[1,2-b][1,2,4]triazin-6-yl)methyl)-1-ethyl-1H-pyrazole-5-carboxamide] are less than 100 nM and 100 to 1000 nM.
Consider `CCn1nccc1C(=O)N[C@H](c1cn2nc(C[C@H]3C[C@@H](C(F)(F)F)CNC3=O)c(N(C)CC3(C)COC3)nc2n1)C1CCC(F)(F)CC1` [Compound 195, N—((S)-(4,4-difluorocyclohexyl)(3-(methyl((3-methyloxetan-3-yl)methyl)amino)-2-(((3R,5R)-2-oxo-5-(trifluoromethyl)piperidin-3-yl)methyl)imidazo[1,2-b][1,2,4]triazin-6-yl)methyl)-1-ethyl-1H-pyrazole-5-carboxamide], for which the IC50 in assay [1] was 100 to 1000 nM; in assay [2], greater than 1000 nM.
Regarding `CCn1nccc1C(=O)N[C@H](c1cn2nc(C[C@H]3C[C@@H](C(F)(F)F)CNC3=O)c(C3CCOCC3)nc2n1)C1CCCCC1` [Compound 196, N-((1S)-cyclohexyl(2-(((3R,5R)-2-oxo-5-(trifluoromethyl)piperidin-3-yl)methyl)-3-(tetrahydro-2H-pyran-4-yl)imidazo[1,2-b][1,2,4]triazin-6-yl)methyl)-1-ethyl-1H-pyrazole-5-carboxamide], the IC50 in assay [1] and in assay [2] was less than 100 nM each time.
Turning to `CCn1nccc1C(=O)N[C@H](c1cn2nc(C[C@H]3C[C@@H](C(F)(F)F)CNC3=O)c(C3CCOCC3)nc2n1)C1CC2(C1)CC(F)(F)C2` [Compound 197], the IC50 in assay [1] is less than 100 nM; in assay [2], greater than 1000 nM.
`CCn1nccc1C(=O)N[C@@H](c1cn2nc(C[C@H]3C[C@@H](C(F)(F)F)CNC3=O)c(C3CCOCC3)nc2n1)C1CC2CC2C1` (stereo partly drawn) [Compound 198]: the values for the IC50 in assay [1] and in assay [2] were less than 100 nM and 100 to 1000 nM, respectively.
